Values quoted from earlier work, collected in patent US20040102473A1, “Method of preventing or treating atherosclerosis or restenosis” (priority 2002, published 2004).

System: CMV
Details: DHPG prophylaxis, Lemstrom et al., Circulation 1994

## Nc1nc(O)c2ncn(COC(CO)CO)c2n1 [Ganciclovir]
  prevention of atherosclerosis resulting from CMV infection of rats: prevent atherosclerosis
